Experimental data published in patent publication US8101768B2, “Cyclic amine compound and pest control agent” (Nippon Soda Co., Ltd., priority 2004, dated 2012).

System: organophosphorous agent resistant two-spotted spider mites
Assay: Effect on Two-spotted Spider Mite (spray on kidney bean leaves)
Format: in vivo
Details: 125 ppm, water dispersible powder of Formulation Example 1 sprayed, 17 female adults, 25° C., 65% humidity, 3 days
Source text: Effect on Two-spotted Spider Mite
17 female adults of organophosphorous agent resistant two-spotted spider mites were inoculated onto the first leaves of kidney beans seeded onto 3.5 inch pots and germinated 7 to 10 days before, onto which each of liquid agents, diluted with water so as to adjust the respective concentration of the chemical compounds to 125 ppm according to the formulation of the water dispersible powder shown in the aforementioned Formulation Example 1, was sprayed. After they were left in a thermostatic chamber at 25° C. in 65% humidity for 3 days, the rate of killed adults was investigated. The examination was repeated twice. As the results, the following chemical compounds killed 100% of the adults.

Structure (SMILES) | rate of killed adults
CCCN(C)c1cc(C(F)(F)F)ccc1OC1CC2CCC(C1)N2c1ccc(C(F)(F)F)cn1 (centres unmarked) [2-161] | 100%
CCCSc1cc(C(F)(F)F)ccc1OC1CC2CCC(C1)N2c1ccc(C(F)(F)F)cn1 (centres unmarked) [2-165] | 100%
FC(F)(F)c1ccc(N2[C@@H]3CC[C@H]2C[C@@H](Oc2ccc(C(F)(F)F)cc2SCC2CC2)C3)nc1 [2-166] | 100%
FC(F)(F)c1ccc(N2C3CCC2CC(Oc2ccc(C(F)(F)F)cc2C2OCCO2)C3)nc1 (stereo not drawn) [2-169, 3α-{2-([1,3]dioxolane-yl)-4-(trifluoromethyl)phenoxy}-8-[5-(trifluoromethyl)-2-pyridyl]-8-azabicyclo[3.2.1]octane] | 100%
CCCOCc1cc(C(F)(F)F)ccc1OC1CC2CCC(C1)N2c1ccc(C(F)(F)F)cn1 (centres unmarked) [2-171] | 100%
CC(O)COc1cc(C(F)(F)F)ccc1OC1CC2CCC(C1)N2c1ccc(C(F)(F)F)cn1 (centres unmarked) [2-173] | 100%
COC(C)COc1cc(C(F)(F)F)ccc1OC1CC2CCC(C1)[N+]2([O-])c1ccc(C(F)(F)F)cn1 (centres unmarked) [2-174] | 100%
CCOC(C)COc1cc(C(F)(F)F)ccc1OC1CC2CCC(C1)N2c1ccc(C(F)(F)F)cn1 (centres unmarked) [2-175] | 100%
CCC(C)Oc1cc(C(F)(F)F)ccc1OC1CC2CCC(C1)N2c1ccc(C(F)(F)F)cn1 (centres unmarked) [2-177] | 100%
COCC(C)Oc1cc(C(F)(F)F)ccc1OC1CC2CCC(C1)N2c1ccc(C(F)(F)F)cn1 (centres unmarked) [2-178] | 100%
FC(F)(F)c1ccc(N2C3CCC2CC(Oc2ccc(C(F)(F)F)cc2OC2CCOC2)C3)nc1 (centres unmarked) [2-179] | 100%
CC(F)COc1cc(C(F)(F)F)ccc1OC1CC2CCC(C1)N2c1ccc(C(F)(F)F)cn1 (centres unmarked) [2-181] | 100%
CSCOc1cc(C(F)(F)F)ccc1OC1CC2CCC(C1)N2c1ccc(C(F)(F)F)cn1 (centres unmarked) [2-182] | 100%
C=C(Cl)COc1cc(C(F)(F)F)ccc1OC1CC2CCC(C1)N2c1ccc(C(F)(F)F)cn1 (centres unmarked) [2-183] | 100%
CCCC(O)c1cc(C(F)(F)F)ccc1OC1CC2CCC(C1)N2c1ccc(C(F)(F)F)cn1 (stereo not drawn) [2-184, 3α-[2-(1-hydroxybutyl)-4-(trifluoromethyl)phenoxy]-8-[5-(trifluoromethyl)-2-pyridyl]-8-azabicyclo[3.2.1]octane] | 100%
CCC=Cc1cc(C(F)(F)F)ccc1OC1CC2CCC(C1)N2c1ccc(C(F)(F)F)cn1 (stereo not drawn) [2-186, 3α-[2-(buten-1-yl)-4-(trifluoromethyl)phenoxy]-8-[5-(trifluoromethyl)-2-pyridyl]-8-azabicyclo[3.2.1]octane] | 100%
CCCCc1cc(C(F)(F)F)ccc1O[C@H]1C[C@H]2CC[C@@H](C1)N2c1ccc(C(F)(F)F)cn1 [2-187, 3α-[2-butyl-4-(trifluoromethyl)phenoxy]-8-[5-(trifluoromethyl)-2-pyridyl]-8-azabicyclo[3.2.1]octane] | 100%
COCCCc1cc(C(F)(F)F)ccc1OC1CC2CCC(C1)N2c1ccc(C(F)(F)F)cn1 (centres unmarked) [2-190] | 100%
COC(C)CCc1cc(C(F)(F)F)ccc1OC1CC2CCC(C1)N2c1ccc(C(F)(F)F)cn1 (centres unmarked) [2-192] | 100%
CCOC(=O)c1cc(C(F)(F)F)ccc1OC1CC2CCC(C1)N2c1ccc(C(F)(F)F)cn1 (centres unmarked) [2-193] | 100%
CCC(C)C(O)c1cc(C(F)(F)F)ccc1OC1CC2CCC(C1)N2c1ccc(C(F)(F)F)cn1 (centres unmarked) [2-194] | 100%
CC(Br)COc1cc(C(F)(F)F)ccc1OC1CC2CCC(C1)N2c1ccc(C(F)(F)F)cn1 (centres unmarked) [2-195] | 100%
CC(C)OC(=O)c1cc(C(F)(F)F)ccc1OC1CC2CCC(C1)N2c1ccc(C(F)(F)F)cn1 (centres unmarked) [2-196] | 100%
CC(C)(C)OC(=O)c1cc(C(F)(F)F)ccc1OC1CC2CCC(C1)N2c1ccc(C(F)(F)F)cn1 (centres unmarked) [2-198] | 100%

Structure (SMILES) | rate of killed adults
CC1COC(c2cc(C(F)(F)F)ccc2OC2CC3CCC(C2)N3c2ccc(C(F)(F)F)cn2)=N1 (centres unmarked) [2-199] | 100%
Cc1noc(-c2cc(C(F)(F)F)ccc2OC2CC3CCC(C2)N3c2ccc(C(F)(F)F)cn2)n1 (centres unmarked) [2-200] | 100%
CC1CN=C(c2cc(C(F)(F)F)ccc2OC2CC3CCC(C2)N3c2ccc(C(F)(F)F)cn2)O1 (centres unmarked) [2-201] | 100%
CCON=Cc1cc(C(F)(F)F)ccc1OC1CC2CCC(C1)N2c1ccc(C(F)(F)F)cn1 (centres unmarked) [2-203] | 100%
Cc1cnc(-c2cc(C(F)(F)F)ccc2OC2CC3CCC(C2)N3c2ccc(C(F)(F)F)cn2)o1 (centres unmarked) [2-205] | 100%
CCC(C)OC(=O)c1cc(C(F)(F)F)ccc1OC1CC2CCC(C1)N2c1ccc(C(F)(F)F)cn1 (centres unmarked) [2-208] | 100%
Cc1coc(-c2cc(C(F)(F)F)ccc2OC2CC3CCC(C2)N3c2ccc(C(F)(F)F)cn2)n1 (centres unmarked) [2-209] | 100%
CC1(C)COC(c2cc(C(F)(F)F)ccc2OC2CC3CCC(C2)N3c2ccc(C(F)(F)F)cn2)=N1 (centres unmarked) [2-210] | 100%
CON=Cc1cc(C(F)(F)F)ccc1OC1CC2CCC(C1)N2c1ccc(C(F)(F)F)cn1 (centres unmarked) [2-211] | 100%
CC(C)=NOc1cc(C(F)(F)F)ccc1OC1CC2CCC(C1)N2c1ccc(C(F)(F)F)cn1 (stereo not drawn) [2-212, 3α-[2-isopropylideneaminoxy-4-(trifluoromethyl)phenoxy]-8-[5-(trifluoromethyl)-2-pyridyl]-8-azabicyclo[3.2.1]octane] | 100%
CCC1COC(c2cc(C(F)(F)F)ccc2OC2CC3CCC(C2)N3c2ccc(C(F)(F)F)cn2)=N1 (centres unmarked) [2-220] | 100%
C#CCON=Cc1cc(C(F)(F)F)ccc1OC1CC2CCC(C1)N2c1ccc(C(F)(F)F)cn1 (centres unmarked) [2-221] | 100%
O=C(OC1CCCC1)c1cc(C(F)(F)F)ccc1OC1CC2CCC(C1)N2c1ccc(C(F)(F)F)cn1 (centres unmarked) [2-223] | 100%
O=C(OC1CCOC1)c1cc(C(F)(F)F)ccc1OC1CC2CCC(C1)N2c1ccc(C(F)(F)F)cn1 (centres unmarked) [2-225] | 100%
FC(F)(F)c1ccc(N2C3CCC2CC(Oc2ccc(C(F)(F)F)cc2ON=C2CCCC2)C3)nc1 (centres unmarked) [2-227] | 100%
COCCOC(=O)c1cc(C(F)(F)F)ccc1OC1CC2CCC(C1)N2c1ccc(C(F)(F)F)cn1 (centres unmarked) [2-230] | 100%
CC(C)C(C)OC(=O)c1cc(C(F)(F)F)ccc1OC1CC2CCC(C1)N2c1ccc(C(F)(F)F)cn1 (centres unmarked) [2-232] | 100%
CC(CCl)OC(=O)c1cc(C(F)(F)F)ccc1OC1CC2CCC(C1)N2c1ccc(C(F)(F)F)cn1 (centres unmarked) [2-233] | 100%
COCC(C)OC(=O)c1cc(C(F)(F)F)ccc1OC1CC2CCC(C1)N2c1ccc(C(F)(F)F)cn1 (centres unmarked) [2-234] | 100%
C=CC(C)OC(=O)c1cc(C(F)(F)F)ccc1OC1CC2CCC(C1)N2c1ccc(C(F)(F)F)cn1 (centres unmarked) [2-235] | 100%
CC(CBr)OC(=O)c1cc(C(F)(F)F)ccc1OC1CC2CCC(C1)N2c1ccc(C(F)(F)F)cn1 (centres unmarked) [2-236] | 100%
O=C(OCC1CC1)c1cc(C(F)(F)F)ccc1OC1CC2CCC(C1)N2c1ccc(C(F)(F)F)cn1 (centres unmarked) [2-237] | 100%
CC(OC(=O)c1cc(C(F)(F)F)ccc1OC1CC2CCC(C1)N2c1ccc(C(F)(F)F)cn1)C1CC1 (centres unmarked) [2-239] | 100%
